Measurements as given in ChEMBL document CHEMBL3507680, “University of Dundee, Gates Library screen for HepG2 cell viability”.

Experiment: Human HepG2 cell viability assay in 384 well format
Assay type: toxicity, cell-based
Design: dose 125 nL, time 70.5 hour; concentration not given beside the values
Details: HepG2 cells, read-out: Inhibition

| Structure (SMILES) | cytotoxicity at 70.5 h |
| --- | --- |
| Cc1cc2ncn(C(=O)N3CCCCC3)c2cc1C | -7.84% |
| O=C(c1cn(CC(=O)N2CCCCC2)c2ccccc12)C1CC1 | 24% |
| Cc1cnc(N2CC3(CCN(C(=O)c4ccoc4)C3)C2)nc1 | -2.31% |
| Cc1cccc(CN2C[C@@H]3CN(C(=O)NC(C)C)C[C@@H]3C2=O)c1 | -11.4% |
| Cc1cc(C(=O)N2C[C@@H]3[C@@H](C2)OCC(=O)N3CC2CC2)no1 | -13.6% |
| O=C(c1cccs1)N1C[C@H]2CC[C@@]3(N=C(c4ccccc4)NC3=O)[C@H]2C1 | -4.38% |
| CN(C)[C@@H]1CCN(c2ncccn2)[C@H]1Cc1ccccc1 | -6.06% |
| CC(=O)N1[C@H](Cn2cncn2)C[C@@H]2CN(c3ccc(C)nn3)CC[C@@H]21 | -6.42% |
| COCC1CN(C(=O)c2cccn2C)Cc2ncnn2C1 (stereo unspecified) | -3.03% |
| Cc1ccc(CN2CC[C@H]3C[C@@H](c4nc(C5CC5)cs4)O[C@@H]3C2)o1 | -7.46% |
| Cc1ccc(N2CC3(CCN(C(=O)c4ccoc4)C3)C2)nn1 | -12.3% |
| Cc1nc([C@@H]2C[C@@H]3CCN(C(=O)c4occc4C)C[C@H]3O2)no1 | 23.8% |
| CCc1ncnc2c1CCN(C(=O)N1CCCC1)CC2 | 20.9% |
| CC(C)NC(=O)N1CCC2(CC(C(=O)NCc3cccnc3)=NO2)C1 (stereo unspecified) | -11.9% |
| COCCO[C@@H]1C[C@H]2CN(C(=O)c3ccc(C)nc3)CCN2C1 | -9.86% |
| O=C(NCC1CC1)C1=NOC2(CCN(Cc3ccc4c(c3)OCO4)C2)C1 (stereo unspecified) | -5.94% |
| COCCO[C@@H]1C[C@H]2CN(C(=O)c3cnccn3)CCN2C1 | -6.2% |
| CN1C(=O)C(c2cccnc2)CC12CCN(C(=O)c1cccn1C)CC2 (stereo unspecified) | -10.3% |
| Cc1cc(C(=O)N2C[C@@H]3COC[C@]3(c3nnc(C4CC4)o3)C2)on1 | -19% |
| O=C(NCC1CC1)C1CN(C(=O)c2cccs2)CC12CCOCC2 (stereo unspecified) | -13.2% |
| c1cnc(NCc2noc3c2CN(C2CCOCC2)CC3)nc1 | -10.6% |
| CN(C)S(=O)(=O)N1CCC2(COCc3cnc(-c4ccccc4)nc32)C1 (stereo unspecified) | -23.1% |
| COc1cccc(C(=O)N2CCc3ncnc(C)c3CC2)c1 | -5.4% |

| Structure (SMILES) | cytotoxicity at 70.5 h |
| --- | --- |
| Cn1cc(CN2CC3(CCN(C(=O)c4ccoc4)C3)C2)cn1 | -6.02% |
| Cc1ccc(N2CC3(CCN(c4nccs4)C3)C2)nn1 | -4.92% |
| Cc1nn(C)cc1-c1cc(C(=O)N2CCc3ncc(Cl)cc3C2)no1 | 0.792% |
| Cc1nn(C)cc1-c1cc(C(=O)N2CCc3ncc(Cl)cc3C2)on1 | -2.35% |
| Cc1c(-c2cc(C(=O)N3CCc4ncc(Cl)cc4C3)on2)cnn1C | 35% |
| Cn1nccc1C(=O)N1CCC(c2ncc(Cl)cc2S(C)(=O)=O)CC1 | 18.3% |
| COCCC(=O)N1CCC2(CC1)CN(C(C)=O)Cc1ccccc1O2 | 0.622% |
| COCCC(=O)N1Cc2ccccc2OC2(CCOCC2)C1 | -0.482% |
| Cc1ncc(-c2ccncc2)c(C2CCN(C(=O)c3ccco3)CC2)n1 | -2.42% |
| Nc1ncc(CN2CCC(O)(c3ccccc3F)CC2)cn1 | -2.71% |
| COCC(=O)N1CCC2(CC1)CN(S(C)(=O)=O)Cc1ccccc1O2 | -0.505% |
| Cc1cc(C(F)(F)F)n2nc(C3CCN(S(C)(=O)=O)CC3)cc2n1 | -7.35% |
| Cc1cc(C(F)(F)F)n2nc(C3CCN(S(=O)(=O)N(C)C)CC3)cc2n1 | -0.288% |
| Cn1ncc2c1CCCN(C(=O)C1CC1)C2 | 14.3% |
| Cc1nn(C)cc1CN1CCCC(n2c(=O)oc3ccc(Cl)cc32)C1 (stereo unspecified) | 46.8% |
| CCCNS(=O)(=O)c1cc2c3c(c1)c(C)cc(=O)n3CCC2 | -0.859% |
| CCCc1cc(C(=O)NC(C)c2ccccc2)n(C)n1 (stereo unspecified) | -2.33% |
| Cc1ccnn1CCNC(=O)c1cnc(N(C)C)nc1 | -4.92% |
| Cc1nc2c(c(NCCCN3CCOCC3)n1)CCN(C)C2 | 15.4% |
| Cc1nc2c(c(NCCN3CCOCC3)n1)CCN(C)C2 | 32.4% |
| CNc1cc(C)nc(C2COCCN2CCOc2ccc(F)cc2)n1 (stereo unspecified) | -3.24% |
| CNc1cc(C)nc(C2COCCN2CCc2ccccc2)n1 (stereo unspecified) | -1.48% |
| CCCn1nc(C)c(C(=O)N(C)[C@@H]2CC[C@@H](OC)[C@@H]2O)c1C | -3.89% |

| Structure (SMILES) | cytotoxicity at 70.5 h |
| --- | --- |
| CC(C)(C)c1ccc(CN2C[C@H]3C[C@H](O)C[C@H]3C2)c(OCC(N)=O)c1 | -2.7% |
| CNC(=O)C1(CCCc2cnccn2)CCN1Cc1ccc(C)cc1 (stereo unspecified) | -5.64% |
| CC(=O)N1CCN(c2cc(C)ncn2)CC(CO)C1 (stereo unspecified) | -3.4% |
| CC(=O)N1CCC1c1cc(N2CCSCC2)nc(C)n1 (stereo unspecified) | -1.98% |
| COc1ccc2c(c1)C(=O)NC1(CC2)CCN(Cc2cccnc2)C1 (stereo unspecified) | -2.38% |
| CC(=O)N1CCC(c2n[nH]cc2-c2ccnc(N)c2)C1 (stereo unspecified) | 15.7% |
| O=C(c1cnccn1)N1CCCC(Cc2ccccn2)C1 (stereo unspecified) | 4.02% |
| Cc1c[nH]c(C2COCCN2C(=O)c2n[nH]c(=O)c3ccccc23)n1 (stereo unspecified) | -13.4% |
| CCCC(=O)N1CCCC1(C)c1nc(C)no1 (stereo unspecified) | -14.9% |
| COc1ccc(CNC(Cc2ccsc2)c2ncccc2C)cc1OC (stereo unspecified) | -4.5% |
| O=c1c(CN2CC3CCCN3C[C@@H]2CCO)coc2ccc(Cl)cc12 (stereo partly specified) | -6.6% |
| CC(=O)N1CCN(c2cnccn2)CC(CO)C1 (stereo unspecified) | -5.92% |
| CC(C)N1CCCC1c1cc(CCO)[nH]n1 (stereo unspecified) | -9.45% |
| c1ccc2ncc(CC3CCNCC3)cc2c1 | 13.4% |
| COc1ccc(OCCc2cc(C3CNCCO3)nn2C)cc1 (stereo unspecified) | 12.2% |
| CCCc1nnsc1C(=O)N1CCCC1(C)C(=O)N1CCOCC1 (stereo unspecified) | -9.09% |
| CN1CCCC1c1cncc(C(=O)NCCN2CCCC2)n1 (stereo unspecified) | -14.2% |
| CNc1ncc(C(=O)N2CCOC(C(=O)NC3CCCC3)C2)cn1 (stereo unspecified) | -9.73% |
| COCCC(=O)N1C[C@@H](c2cccc(OC)c2)[C@@]2(CCCCC(=O)N2)C1 | -14.8% |
| COCC(=O)N1C[C@@H](c2cccc(OC)c2)[C@@]2(CCCCC(=O)N2)C1 | -10.3% |
| Oc1cc(C2CCCCN2Cc2ccsc2)nc(-c2ccncc2)n1 (stereo unspecified) | -9.16% |
| CCNC(=O)Nc1ncc(-c2cccnc2)s1 | -6.64% |
| CNC(=O)C1CN(Cc2cc(C)on2)CCN(C2CCOCC2)C1 (stereo unspecified) | -7.77% |

| Structure (SMILES) | cytotoxicity at 70.5 h |
| --- | --- |
| c1cc(CCNc2ccc(CC3CCNC3)cn2)ccn1 (stereo unspecified) | -4.08% |
| CNC(=O)c1ccc(C2CN(CC(=O)N(C)C)CCO2)nc1 (stereo unspecified) | -5.57% |
| CNC(=O)c1ccc(C2CN(Cc3ccc(F)cc3)CCO2)nc1 (stereo unspecified) | -1.99% |
| CCN1CCC(N2CCC(c3nc(C)cc(C)n3)C2)CC1 (stereo unspecified) | -2.1% |
| O=C(O)c1ccccc1-n1cnc(CN2CCCc3ccccc32)c1 | -2.75% |
| c1cc2cc[nH]c2c(CC2CN(Cc3cscn3)C2)n1 | -3.59% |
| COCC(=O)NC(CC(C)C)c1nc2cccnc2n1C (stereo unspecified) | 20.7% |
| Cc1cc2nccc(C3CCCN(C(=O)c4ccccc4F)C3)n2n1 (stereo unspecified) | -1.93% |
| O=C(Cc1ccc(F)c(F)c1)NC1COc2ccccc2C1=O (stereo unspecified) | -0.695% |
| CC(O)CN1CCN(Cc2cccc(C#N)c2)CC1 (stereo unspecified) | -4.63% |
| Cc1nn(C)c(C)c1NC(=O)CNC(c1ccccc1)C1CCC1 (stereo unspecified) | -4.47% |
| Cc1cnn(CCNCc2nccn2Cc2ccccc2)c1 | 1.16% |
| COC(=O)CC(NC(=O)c1cccc(N2CCCC2=O)c1)C(=O)OC (stereo unspecified) | 0.259% |
| COCCNc1nc(-c2ccc(S(=O)(=O)N3CCCCC3)cc2)cs1 | 0.097% |
| Cn1cnnc1S(=O)(=O)Cc1cc(Cl)c2c(c1)OCCO2 | -1.41% |
| COC(=O)CC(NC(=O)c1cccc(CS(C)(=O)=O)c1)c1cccs1 (stereo unspecified) | -4.71% |
| Cc1ccc(-c2nc(CC(=O)N3CCCC(NC(=O)C(C)C)C3)cs2)o1 (stereo unspecified) | -4.05% |
| Cc1cc(N2CCN(Cc3cn(C)nc3C)CC2)cc(C2CCCN2)n1 (stereo unspecified) | -1.66% |
| Cc1nc(Nc2nncs2)cc(C2CCCN2)n1 (stereo unspecified) | -4.59% |
| OC1CCN(c2cncc(CCC3CCCN3)n2)CC1 (stereo unspecified) | -4.54% |
| COc1cccc2c(C)c(C(=O)N3CCNCC3C(N)=O)[nH]c12 (stereo unspecified) | -7.8% |
| FC(F)(F)c1ccc(-c2cnc(C3CCCN3)cn2)cc1 (stereo unspecified) | 13.6% |
| Cn1cnc2c(N3CCCC3)nc(C3CCNCC3)cc21 | -17% |

| Structure (SMILES) | cytotoxicity at 70.5 h |
| --- | --- |
| Cc1occc1C(=O)N1CCC2(CCN(Cc3nccs3)C2)CC1 | -11% |
| CS(=O)(=O)N1CC[C@H]2O[C@H](C(=O)NCCc3ccncc3)CC[C@H]21 | 14.6% |
| O=C(NC1CC1)N1CCc2ncnc(-c3ccncc3)c2CC1 | 18.5% |
| Cn1cc(CN2CC[C@H]3O[C@H](C(=O)NCc4ccco4)CC[C@H]32)cn1 | -12.4% |
| Cc1ccc(CN2CC(C(=O)N3CCCC3)C3(CCOCC3)C2)s1 (stereo unspecified) | -9.91% |
| O=C(Nc1ccccc1)C1CN(CC2CC2)CC12CCOCC2 (stereo unspecified) | -17.6% |
| O=C(c1cnccn1)N1CCc2ncnc(-c3cccnc3)c2CC1 | -16.1% |
| COCC(=O)N1CCCn2c(CN3CCCCC3)nnc2C1 | -7.69% |
| CCOCC1CN(Cc2cccc(C#N)c2)Cc2nccn2C1 (stereo unspecified) | -1.89% |
| CS(=O)(=O)NCc1cnc2n1CCN(Cc1ccsc1)CC2 | 8.08% |
| CC(C)COCc1cncc2c1CCN(Cc1cnn(C)c1)C2 | -13.8% |
| c1cncc(COCc2nnc3n2CCN(Cc2ccoc2)C3)c1 | -9.66% |
| CN(Cc1ccco1)C[C@H]1OC[C@@H]2CCN(Cc3cccs3)C[C@@H]21 | -13.4% |
| O=C(c1cccnc1)N1CC[C@H](OCC2CC2)[C@@H]1Cc1cccnc1 | -5.08% |
| CC(C)Nc1nc2c(cc1C(=O)N(C)C)CCNCC2 | -6.7% |
| CC(C)N(C)Cc1cn2c(n1)CN(Cc1ccsc1)CC2 | 10.4% |
| CN(Cc1ccco1)C[C@H]1OC[C@@H]2CCN(Cc3cccnc3)C[C@@H]21 | -7.43% |
| CCc1cc(C(F)(F)F)n2nc(C3CCCN3C3CCSCC3)cc2n1 (stereo unspecified) | -2.16% |
| CCN(CC)CCCNc1nc(C)nc2c1CCN(C)C2 | -1.66% |
